Data from PubChem BioAssay (NCI).
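How tested: cells in 96-well plates exposed to compound for 48 hours at five concentrations. TGI: concentration producing complete growth inhibition.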

Tests used:
Assay in all cases: NCI tumour cell line growth inhibition, 48 h
[1] = test system: RPMI-8226 leukemia
[2] = test system: K-562 leukemia
[3] = test system: SNB-19 CNS
[4] = test system: EKVX NSCLC
[5] = test system: MCF7 breast
[6] = test system: NCI-H23 lung
[7] = test system: A498 renal
[8] = test system: UO-31 renal
[9] = test system: MOLT-4 leukemia
[10] = test system: MDA-MB-231 breast
[11] = test system: U251 CNS
[12] = test system: 786-0 renal
[13] = test system: HS 578T breast
[14] = test system: BT-549 breast
[15] = test system: OVCAR-5 ovarian
[16] = test system: LOX IMVI melanoma
[17] = test system: SF-268 CNS
[18] = test system: COLO 205 colon
[19] = test system: OVCAR-4 ovarian

`CC(=O)Oc1cc(Cl)c(C)c2c1[C@H]1CC[C@]3(C)[C@@H](OC(C)=O)CC[C@H]3[C@@H]1CC2` was tested, and the TGI [1] was > 100 µM, the TGI [2] was > 100 µM and the TGI [3] was > 100 µM. For the same compound, the TGI [4] was > 100 µM, the TGI [5] was > 100 µM and the TGI [6] was > 100 µM. For the same compound, the TGI [7] was > 100 µM, the TGI [8] was > 100 µM and the TGI [9] was > 100 µM. The TGI [10] was > 100 µM, the TGI [11] was > 100 µM and the TGI [12] was > 100 µM. For the same compound, the TGI [13] was > 100 µM, the TGI [14] was > 100 µM and the TGI [15] was > 100 µM. The TGI [16] was > 100 µM and the TGI [17] was > 100 µM.
For `C=C1[C@H](OC(C)=O)[C@H]2[C@@H](OC(C)=O)[C@@H](C)C[C@]2(C)C(=O)[C@H](C)/C=C/C(C)(C)C(=O)[C@H](OCC(C)C)[C@H]1OC(C)=O`, the TGI [3] was > 25 µM, the TGI [4] was > 25 µM and the TGI [18] was > 25 µM. The TGI [5] was > 25 µM, the TGI [6] was > 25 µM and the TGI [7] was > 25 µM. For the same compound, the TGI [8] was > 25 µM, the TGI [9] was > 25 µM and the TGI [10] was > 25 µM. The TGI [11] was > 25 µM, the TGI [19] was > 25 µM and the TGI [12] was > 25 µM. The TGI [13] was > 25 µM, the TGI [14] was > 25 µM and the TGI [15] was > 25 µM. For the same compound, the TGI [16] was > 25 µM and the TGI [17] was > 25 µM.
In the case of `O=C(O)COCC(=O)N(CCOCCN(Cc1ccccc1)C(=O)COCC(=O)O)Cc1ccccc1`, the TGI [1] was > 100 µM, the TGI [2] was > 100 µM and the TGI [3] was > 100 µM. The TGI [4] was > 100 µM, the TGI [18] was > 100 µM and the TGI [5] was > 100 µM. The TGI [6] was > 100 µM, the TGI [7] was > 100 µM and the TGI [9] was > 100 µM. For the same compound, the TGI [10] was > 100 µM, the TGI [11] was > 100 µM and the TGI [12] was > 100 µM. The TGI [13] was > 100 µM, the TGI [14] was > 100 µM and the TGI [15] was > 100 µM. For the same compound, the TGI [16] was > 100 µM and the TGI [17] was > 100 µM.
`Cc1cc(C)c2c(O)c(S(=O)(=O)c3ccc(Cl)cc3)c(=O)oc2c1` was tested, and the TGI [1] was > 100 µM, the TGI [2] was > 100 µM and the TGI [3] was > 100 µM. For the same compound, the TGI [4] was 93 µM, the TGI [18] was > 100 µM and the TGI [5] was > 100 µM. For the same compound, the TGI [6] was > 100 µM, the TGI [7] was > 100 µM and the TGI [8] was > 100 µM. For the same compound, the TGI [10] was > 100 µM, the TGI [11] was > 100 µM and the TGI [19] was > 100 µM. For the same compound, the TGI [12] was > 100 µM, the TGI [13] was > 100 µM and the TGI [14] was > 100 µM. For the same compound, the TGI [15] was > 100 µM and the TGI [17] was > 100 µM.
For `c1ccc(-c2nc3ccccc3n3c(CN4CCCCC4)nnc23)cc1`, the TGI [1] was > 100 µM, the TGI [2] was > 100 µM and the TGI [3] was > 100 µM. For the same compound, the TGI [4] was > 100 µM, the TGI [18] was > 100 µM and the TGI [5] was > 100 µM. The TGI [7] was > 100 µM, the TGI [9] was > 100 µM and the TGI [10] was > 100 µM. The TGI [11] was > 100 µM, the TGI [19] was > 100 µM and the TGI [12] was > 100 µM. The TGI [13] was > 100 µM, the TGI [14] was > 100 µM and the TGI [15] was > 100 µM. For the same compound, the TGI [16] was > 100 µM and the TGI [17] was > 100 µM.
For `Nc1cccnc1NCC1(CO)CCCC1`, the TGI [1] was > 100 µM, the TGI [2] was > 100 µM and the TGI [4] was > 100 µM. For the same compound, the TGI [18] was > 100 µM, the TGI [5] was > 100 µM and the TGI [6] was > 100 µM. The TGI [7] was > 100 µM, the TGI [8] was > 100 µM and the TGI [9] was > 100 µM. The TGI [10] was > 100 µM, the TGI [11] was > 100 µM and the TGI [19] was > 100 µM. For the same compound, the TGI [12] was > 100 µM, the TGI [13] was > 100 µM and the TGI [14] was > 100 µM. The TGI [15] was > 100 µM, the TGI [16] was > 100 µM and the TGI [17] was > 100 µM.
